Legend:
[1] = tested on: sickle cell mice; assay: TNFα-induced vaso-occlusive crisis in sickle cell mice, intravital microscopy of cremaster venules (prevention protocol); assay type: in vivo
Description: FIG. 6 is a schematic of the protocol for inducing a vaso-occlusive crisis (VOC) in sickle cell-affected mice and recording blood flow.
(§1) An animal model of sickle cell disease exists in fully chimeric mice constructed by bone marrow transplantation and expressing >97% human globin containing the β^S mutation. A vaso-occlusive crisis is induced by stimulation with TNFα and is monitored by observing and recording blood flow by intravital microscopy of the venules in the cremaster muscle.
(§2) Each mouse is prepared by cannulating the right carotid artery and by undergoing a tracheotomy to facilitate ventilation under anesthesia. Twenty (20) minutes prior to stimulation with TNFα, the cremaster muscle is gently exteriorized and the venules are set on a microscope stage for observation and recording of blood flow. Just prior to administration of TNFα and again prior to the recording of the venules (90 min later), Compound # 2 is administered through the cannulated carotid artery and data is obtained by monitoring blood flow and recording time of death.

[2] = tested on: sickle cell mice; assay: Delayed treatment of VOC in sickle cell mice (treatment protocol); assay type: in vivo; details: control PBS
Protocol: FIG. 9 is a schematic of a sickle cell mouse model for use with both prevention and treatment protocols. The black arrows underneath Comp. #2 are for the prevention protocol. The gray arrow underneath Comp. #2 is for the treatment protocol. Recording is started at the 90 minute mark for the prevention protocol. Recording is started at the 120 minute mark for the treatment protocol.
as §1, §2

SMILES: CC1OC(OC2C(NC(=O)c3cc(O)nc(O)n3)CC(C(=O)NCCNC(=O)COCCOCC(=O)Nc3cccc(CNc4cc(S(=O)(=O)O)cc5cc(S(=O)(=O)O)cc(S(=O)(=O)O)c45)c3)CC2OC2OC(CO)C(O)C(O[C@@H](CC3CCCCC3)C(=O)O)C2OC(=O)c2ccccc2)C(O)C(O)C1O (some centres unmarked) [Compound #2]
- blood flow in the sickle cell mouse ([1]; after stimulation with TNFα, compound given through cannulated carotid artery just prior to TNFα and again 90 min later, FIG. 7): restoring blood flow to a velocity observed in normal mice
- adhesion of sickle red blood cells (RBC) to leukocytes ([1]; sickle cell mice, TNFα-induced vaso-occlusive crisis, FIG. 8): significant inhibition of adhesion
- adherent white blood cells (WBCs) ([2]; WBCs adherent to vascular endothelium, FIG. 11): significant reduction in the number of WBCs adherent to the vascular endothelium
- blood flow rate ([2]; FIG. 10): normalizes the rate of blood flow
- interactions of sickle red blood cells (RBCS) with leukocytes ([2]; FIG. 12): dramatically reduces interactions of sickle RBCs with leukocytes
